The values that follow come from patent US20250074910A1, “MENIN INHIBITOR AND USE THEREOF” (HITGEN INC., priority 2021, published 2025).

In one data set the test system is MV4-11. Nature of the data set: Cell proliferation inhibition (CellTiter-Glo), MV4-11. The data set is classed as cell-based. The settings on record: Homo sapiens, MV4-11, 72 h, MV4-11 cells. Summed up:
(§1)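 IC50 values come from dose-response fitting of CellTiter-Glo luminescence after 72-168 h compound exposure (final 1 nM-10 μM) at 37° C and 5% CO2, with 5,000-20,000 cells plated per well.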
(Cellular ATP, detected with luciferase, serves as a proxy for viable cell number.)

A further data set has as its system MOLM-13. Nature of the data set: Cell proliferation inhibition (CellTiter-Glo), MOLM-13. The data set is classed as cell-based. The settings on record: Homo sapiens, MOLM-13, 168 h, MOLM-13 cells. Summed up:
as §1

The nature of data set [1]: Stability in human liver microsomes. Type of data set: in vitro ADME. Particulars: human, liver microsomes, pH 7.4, Human; 0.5 mg/mL microsomal protein, 1.00 μM compound, NADPH; read-out: Half life T1/2, human liver microsomes. Summed up: (§2)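 Compound at 1.00 μM incubated at 37° C with 0.5 mg/mL liver microsomal protein and 2.00 mM NADPH in 100 mM phosphate buffer pH 7.4, sampled 0–60 min with acetonitrile quench. Parent remaining by LC-MS/MS; T½ from ln-remaining slope, CLint scaled by microsomal concentration and conversion factor.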
For orientation: Microsomes from liver hold many membrane-bound enzymes, among them those of drug oxidation.

Data set [2] in a line: Stability in dog liver microsomes. Type of data set: in vitro ADME. The settings on record: dog, liver microsomes, pH 7.4, Dog; 0.5 mg/mL microsomal protein, 1.00 μM compound, NADPH; read-out: Half life T1/2, dog liver microsomes. Summed up: as §2
Data set [3] in a line: Pharmacokinetics test in mouse. The settings on record: mice, p.o. 10 mg/kg; for AUC(0-t) / half-life / Cmax: male, ICR, mouse, plasma, po, 10 mg/kg; for Cmax: read-out: Cmax; for F, %: 1 mg/kg for intravenous injection. The data set is classed as in vivo, ICR mice. From the text:
Test Example 4. In Vivo Pharmacokinetic Study
Test purpose: To determine the pharmacokinetic properties of some of the example compounds of the present disclosure in mice, rats and dogs after single intravenous injection (i.v.) and oral gavage (i.g.) administration by LC-MS/MS method.
Research methods: An appropriate amount of compound was weighed and prepared into a transparent clear solution of a certain concentration using 0.9% sodium chloride injection and 1.5 equivalents of 1M HCl aqueous solution based on the molar number of the compound. After SPF male ICR mice, SPF male SD rats, and male beagle dogs were fasted overnight, the test compound solution was given by intravenous injection and oral gavage at the corresponding dose. Anticoagulated whole blood of the test animals was collected at 5 min, 15 min, 30 min, 1 h, 2 h, 4 h, 8 h, and 24 h after administration, and plasma was separated. Plasma samples at each time point were detected by LC-MS/MS, and the plasma concentration of the compound was determined by the standard curve correction method. Phoenix WinNonlin 5.2 non-compartmental model was used to calculate the pharmacokinetic parameters of terminal elimination half-life (t½), blood peak concentration (Cmax), area under the concentration-time curve (AUC), clearance (CL), and bioavailability (F %), which was directly obtained from the serum concentration results. Blood drug concentration and pharmacokinetic parameters are expressed as mean±standard deviation (X±SD). The specific test protocols for each species are as follows.
Pharmacokinetics Test in Mouse
Test animals: SPF male ICR mice, weighing 25-30 g, 12 mice/compound, purchased from Chengdu Dossy Experimental Animal Co., Ltd.
Test design: On the day of the test, ICR mice were randomly divided into groups according to body weight, fasted but with free water for 12-14 h one day before administration, and fed 2 h after administration.
Preparation of test compound solution: The concentration of the test compound for oral gavage was 1 mg/mL. An appropriate amount of compound was weighed and prepared into a 1 mg/mL transparent clear solution using 0.9% sodium chloride injection and 1.5 equivalents of 1M HCl aqueous solution. The concentration of the test compound for intravenous injection was 0.2 mg/mL. The 1 mg/mL transparent clear solution was diluted to a concentration of 0.2 mg/mL using 0.9% sodium chloride injection. The volume of 1 M HCl solution added was calculated as: volume of 1 M HCl solution added […]=weighed amount of compound (mg)/molecular weight×1.5×1000. The amount added during preparation must not exceed the calculated value.
The test substance was administered as follows: intravenous injection: 1 mg/kg of dose, 5 mL/kg of volume, 6 mice; oral gavage: 10 mg/kg of dose, 10 mL/kg of volume, 6 mice.
Sample collection: Blood (40-50 μl) was collected in anticoagulant tubes sprayed with EDTA-K2 through the orbital venous plexus at 5 min, 15 min, 30 min, 1 h, 2 h, 4 h, 8 h, and 24 h after administration, and centrifuged at 10,000 rpm for 20 min within 1 h (the blood was saved on wet ice before and after centrifugation). The supernatant, which was plasma, was collected and frozen in a refrigerator at −20° C. or below for LC-MS/MS analysis of Full PK of male ICR mice (2 mice per group, 4 blood collection time points per mouse, crossover).

What is called GI50 is the concentration at which growth is held to half of that of the control. Lower therefore signals more potent growth inhibition. A word on the AUC(0-t): it is the area under the concentration-time curve up to a stated or last time point. A low value points to less exposure. One may read the Cmax as the maximum level reached in the sampled fluid or tissue. Turning to `CC(C)N(C(=O)c1cc(F)ccc1Oc1nncnc1N1CC2(CCN(CC3CC4CCC3CC43CCC(=O)N3)CC2)C1)C(C)C` (single isomer, unassigned) [Example 15-1a], in the data set on MV4-11, the GI50 stood at 56.6 nM. In the data set on MOLM-13, it took 154 nM to inhibit growth by half (GI50). Moreover, in data set [1], the half-life at 1 μM amounted to 0.614 h. Moreover, the half-life at 1 μM in data set [2] was over 2 h. Besides, in data set [3], the exposure AUC(0-t) is 6410 ng·h/mL; the half-life was 1.17 h; the Cmax was determined as 3030 ng/mL; the “F, %” value came out at 60%.
Compound `CCN(C(=O)c1cc(F)ccc1Oc1cncnc1N1CC2(CCN(C[C@H]3CC[C@]4(CC3)CC(COC)(COC)C(=O)N4)CC2)C1)C(C)C` [Example 17] displayed a 50% growth inhibitory concentration (GI50) in the data set on MV4-11 of 13.8 nM. The GI50 with MOLM-13 was 7.9 nM. In addition, the half-life at 1 μM in data set [1] was determined as 0.522 h. In addition, the half-life at 1 μM in data set [2] was over 2 h. In data set [3], the AUC(0-t) was 3220 ng·h/mL; the half-life is 1.12 h; the Cmax is 2120 ng/mL; the “F, %” value was 56%.
In turn, `COC[C@H]1C[C@]2(CC[C@@H](CN3CCC4(CC3)CN(c3ncnnc3Oc3ccc(F)cc3C(=O)N(C(C)C)C(C)C)C4)CC2)NC1=O` [Example 38-1] displayed a GI50 in the data set on MV4-11 of 53.8 nM. In addition, growth with MOLM-13 was halved (GI50) at 194 nM. Moreover, the half-life at 1 μM in data set [1] was 1.47 h. Besides, the half-life at 1 μM in data set [2] is over 2 h. In data set [3], the AUC(0-t) was 5060 ng·h/mL; the half-life is 1.06 h; the Cmax turned out to be 2260 ng/mL; the “F, %” value was 67%.
In turn, `COCC1(COC)C[C@]2(CC[C@@H](CN3CCC4(CC3)CN(c3ncnnc3Oc3ccc(F)cc3C(=O)N(C(C)C)C(C)C)C4)CC2)NC1=O` [Example 20] returned a GI50 in the data set with MV4-11 of 14.2 nM. The same compound returned a GI50 in the data set on MOLM-13 of 36.1 nM. Also, the half-life at 1 μM in data set [1] was 1.25 h. Also, the half-life at 1 μM in data set [2] is over 2 h. For the same compound, in data set [3], the AUC(0-t) turned out to be 2180 ng·h/mL; the half-life was 1.88 h; the peak concentration (Cmax) is 919 ng/mL; the “F, %” value is given as 84%.
On to `COC[C@@H]1C[C@]2(CC[C@@H](CN3CCC4(CC3)CN(c3ncnnc3Oc3ccc(F)cc3C(=O)N(C(C)C)C(C)C)C4)CC2)NC1=O` [Example 38-2], for which the GI50 in the data set on MV4-11 came out at 13.1 nM. Further, halving of growth in the data set on MOLM-13 (GI50) required 23.3 nM. In data set [1], the half-life at 1 μM is 1.04 h. Also, in data set [2], the half-life at 1 μM stood at 1.64 h. For the same compound, in data set [3], the AUC(0-t) was determined as 1980 ng·h/mL; the half-life was 0.83 h; the Cmax amounted to 824 ng/mL; the “F, %” value came out at 55%.
